Reference: patent US10369138B2, “Monobactam organic compounds for the treatment of bacterial infections” (Novartis AG, priority 2014, dated 2019)
Converted amounts (≈) assume the structure as drawn.

Assays:
[1] = tested on: E. coli strain 25922; experiment: MIC by broth microdilution, E. coli strain 25922; format: cell-based; details: Escherichia coli, 25922, E. coli strain 25922; read-out: Ec 25922 (MIC)
Method in brief: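 CLSI broth microdilution in cation-adjusted Mueller-Hinton broth, inoculum about 5×10^5 CFU/mL, 10% DMSO from the diluted series, 20 h at 35-37° C. MIC is the lowest concentration preventing visible growth, read by eye and at 600 nm.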

[2] = tested on: E. coli containing KPC-2; experiment: MIC by broth microdilution, E. coli containing KPC-2 (Ec KPC2 Iso); format: cell-based; details: Escherichia coli, read-out: Ec KPC2 Iso (MIC), E. coli containing KPC-2 (carbapenemase from Klebsiella pneumoniae)
Method in brief: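 Host E. coli BW25113 pspB carrying multicopy pBAD18-kan plasmid with constitutive TEM-promoter KPC-2 expression (periplasmic signal sequence); broth microdilution per CLSI in cation-adjusted Mueller-Hinton broth, inoculum ~5×10^5 CFU/mL, compounds twofold serially diluted from DMSO masters (10% DMSO in dilution series added).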

SMILES | MIC [1] [µg/mL] | MIC [2] [µg/mL]
CC(C)(O/N=C(\C(=O)N[C@@H]1C(=O)N(S(=O)(=O)O)[C@@H]1Cn1cc[nH]c1=O)c1csc(N)n1)C(=O)O [Example 87, 2-(((Z)-(1-(2-aminothiazol-4-yl)-2-oxo-2-(((3S,4R)-2-oxo-4-((2-oxo-2,3-dihydro-1H-imidazol-1-yl)methyl)-1-sulfoazetidin-3-yl)amino)ethylidene)amino)oxy)-2-methylpropanoic acid] | 1 (≈ 1.93 µM) | 0.5 (≈ 0.966 µM)
CC(C)(O/N=C(\C(=O)N[C@@H]1C(=O)N(S(=O)(=O)O)[C@@H]1CN1CC[C@@H](NC(=N)N)C1=O)c1csc(N)n1)C(=O)O [Example 88, 2-(((Z)-(1-(2-aminothiazol-4-yl)-2-(((2R,3S)-2-(((R)-3-guanidino-2-oxopyrrolidin-1-yl)methyl)-4-oxo-1-sulfoazetidin-3-yl)amino)-2-oxoethylidene)amino)oxy)-2-methylpropanoic acid] | 2 (≈ 3.47 µM) | 4 (≈ 6.95 µM)
Nc1nc(/C(=N/OC2(C(=O)O)CC2)C(=O)N[C@@H]2C(=O)N(S(=O)(=O)O)[C@@H]2Cn2ncc(CN[C@@H]3CCNC3)n2)cs1 [Example 89, 1-(((Z)-(1-(2-aminothiazol-4-yl)-2-oxo-2-(((3S,4R)-2-oxo-4-((4-(((R)-pyrrolidin-3-ylamino)methyl)-2H-1,2,3-triazol-2-yl)methyl)-1-sulfoazetidin-3-yl)amino)ethylidene)amino)oxy)cyclopropanecarboxylic acid] | 0.5 (≈ 0.835 µM) | 1 (≈ 1.67 µM)
NCCCNCc1cnn(C[C@@H]2[C@H](NC(=O)/C(=N\OC3(C(=O)O)CC3)c3csc(N)n3)C(=O)N2S(=O)(=O)O)n1 [Example 90, 1-(((Z)-(2-(((2R,3S)-2-((4-(((3-aminopropyl)amino)methyl)-2H-1,2,3-triazol-2-yl)methyl)-4-oxo-1-sulfoazetidin-3-yl)amino)-1-(2-aminothiazol-4-yl)-2-oxoethylidene)amino)oxy)cyclopropanecarboxylic acid] | 0.25 (≈ 0.426 µM) | 0.25 (≈ 0.426 µM)
Nc1nc(/C(=N/OC2(C(=O)O)CC2)C(=O)N[C@@H]2C(=O)N(S(=O)(=O)O)[C@@H]2Cn2ncc(CN[C@H]3CCNC3)n2)cs1 [Example 91, 1-(((Z)-(1-(2-aminothiazol-4-yl)-2-oxo-2-(((3S,4R)-2-oxo-4-((4-(((S)-pyrrolidin-3-ylamino)methyl)-2H-1,2,3-triazol-2-yl)methyl)-1-sulfoazetidin-3-yl)amino)ethylidene)amino)oxy)cyclopropanecarboxylic acid] | 0.125 (≈ 0.209 µM) | 0.25 (≈ 0.418 µM)
NCC1CN(Cc2cnn(C[C@@H]3[C@H](NC(=O)/C(=N\OC4(C(=O)O)CC4)c4csc(N)n4)C(=O)N3S(=O)(=O)O)n2)C1 [Example 92, 1-(((Z)-(2-(((2R,3S)-2-((4-((3-(aminomethyl)azetidin-1-yl)methyl)-2H-1,2,3-triazol-2-yl)methyl)-4-oxo-1-sulfoazetidin-3-yl)amino)-1-(2-aminothiazol-4-yl)-2-oxoethylidene)amino)oxy)cyclopropanecarboxylic acid] | 0.25 (≈ 0.418 µM) | 0.5 (≈ 0.835 µM)
Nc1nc(/C(=N/OC2(C(=O)O)CC2)C(=O)N[C@@H]2C(=O)N(S(=O)(=O)O)[C@@H]2Cn2ncc(CN[C@H]3C[C@H](N)C3)n2)cs1 [Example 93, 1-(((Z)-(2-(((2R,3S)-2-((4-((((1 r,3R)-3-aminocyclobutyl)amino)methyl)-2H-1,2,3-triazol-2-yl)methyl)-4-oxo-1-sulfoazetidin-3-yl)amino)-1-(2-aminothiazol-4-yl)-2-oxoethylidene)amino)oxy)cyclopropanecarboxylic acid] | 0.25 (≈ 0.418 µM) | 0.5 (≈ 0.835 µM)
NCCCNCc1cnn(C[C@@H]2[C@H](NC(=O)/C(=N\OC3(C(=O)O)CC3)c3nsc(N)n3)C(=O)N2S(=O)(=O)O)n1 [Example 94, (((Z)-(1-(5-amino-1,2,4-thiadiazol-3-yl)-2-(((2R,3S)-2-((4-(((3-aminopropyl)amino)methyl)-2H-1,2,3-triazol-2-yl)methyl)-4-oxo-1-sulfoazetidin-3-yl)amino)-2-oxoethylidene)amino)oxy)cyclopropanecarboxylic acid] | 0.5 (≈ 0.851 µM) | 1 (≈ 1.7 µM)
